Laboratory results: PubChem BioAssay (NCI)
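Step 1: Grow cells in 96-well plates. Step 2: Expose to compound for 48 hours at 5 concentrations. Step 3: Interpolate endpoints linearly; if unreached, use highest concentration. GI50 = concentration required for 50% inhibition of growth. TGI marks complete inhibition of growth.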

Tests used:
Test in all cases: NCI-60 cell line screen, 48 h
CCRF-CEM leukemia = tested on: CCRF-CEM leukemia
HOP-92 NSCLC = tested on: HOP-92 NSCLC
LOX IMVI melanoma = tested on: LOX IMVI melanoma
NCI-H226 lung = tested on: NCI-H226 lung
NCI-H522 lung = tested on: NCI-H522 lung
SF-295 CNS = tested on: SF-295 CNS
SK-MEL-5 melanoma = tested on: SK-MEL-5 melanoma
SK-OV-3 ovarian = tested on: SK-OV-3 ovarian
UACC-257 melanoma = tested on: UACC-257 melanoma
UO-31 renal = tested on: UO-31 renal

Row | SMILES | GI50 (CCRF-CEM leukemia) | TGI (CCRF-CEM leukemia) | GI50 (HOP-92 NSCLC) | TGI (HOP-92 NSCLC) | GI50 (LOX IMVI melanoma) | TGI (LOX IMVI melanoma) | GI50 (NCI-H226 lung) | TGI (NCI-H226 lung) | GI50 (NCI-H522 lung) | TGI (NCI-H522 lung) | GI50 (SF-295 CNS) | TGI (SF-295 CNS) | GI50 (SK-MEL-5 melanoma) | TGI (SK-MEL-5 melanoma) | GI50 (SK-OV-3 ovarian) | TGI (SK-OV-3 ovarian) | GI50 (UACC-257 melanoma) | TGI (UACC-257 melanoma) | GI50 (UO-31 renal) | TGI (UO-31 renal)
1 | Cc1c2c(nn1-c1ccc(S(=O)(=O)/N=C3\SCCC(=O)N3c3ccccc3)cc1)-c1ccccc1CC2 | > 100 µM | > 100 µM | 81.2 µM | > 100 µM | > 100 µM | > 100 µM | 84.4 µM | > 100 µM | 91.4 µM | > 100 µM | 75.7 µM | > 100 µM | 95.9 µM | > 100 µM | > 100 µM | > 100 µM | > 100 µM | > 100 µM | > 100 µM | > 100 µM
2 | CCN1c2ccccc2C(C(SC)S(=O)(=O)c2ccc(C)cc2)c2c1[nH]c(=O)n(C)c2=O (configuration not stated) | – | > 100 µM | – | > 100 µM | – | > 100 µM | – | > 100 µM | – | > 100 µM | – | > 100 µM | – | > 100 µM | – | > 100 µM | – | > 100 µM | – | > 100 µM
3 | O=[N+]([O-])C(/C=C(\Cl)n1nnc2ccccc21)=C(/Cl)n1nnc2ccccc21 | – | > 100 µM | – | > 100 µM | – | > 100 µM | – | > 100 µM | – | > 100 µM | – | > 100 µM | – | > 100 µM | – | > 100 µM | – | > 100 µM | – | > 100 µM
4 | Cn1cnc([N+](=O)[O-])c1S(=O)(=O)Oc1cccc2ccccc12 | 1.32 µM | 9.3 µM | 2.6 µM | 11.5 µM | 2.04 µM | 5.73 µM | 3.79 µM | 31 µM | 0.271 µM | 1.18 µM | 21.2 µM | > 65.3 µM | 13.7 µM | 28.8 µM | 46.9 µM | > 100 µM | 2.36 µM | 6.29 µM | 1.4 µM | 4.33 µM
5 | N#CC(C#N)=CNC(N)=S | – | > 100 µM | – | > 100 µM | – | > 100 µM | – | > 100 µM | – | > 100 µM | – | > 100 µM | – | > 100 µM | – | > 100 µM | – | > 100 µM | – | –
6 | COc1cc(/C=C/c2cc(O)c(C(C)=O)c(O)c2)cc2c1O[C@]1(C)CC[C@@H](O)C(C)(C)[C@H]1C2 | 4.4 µM | > 100 µM | 3.2 µM | 61.6 µM | 2.85 µM | 13.3 µM | 16.8 µM | 54.2 µM | 17.3 µM | 54 µM | 2.92 µM | 10.5 µM | 7.12 µM | 22.3 µM | 9.58 µM | 79.1 µM | 11 µM | 72.7 µM | 3.22 µM | 65.5 µM
7 | CN1CCN(CCCn2c(=O)c3sc4ncccc4c3n3nnc(-c4ccccc4)c23)CC1 | 1.55 µM | 5.29 µM | 5.8 µM | 12.9 µM | 5.33 µM | 11.5 µM | 7.4 µM | 15.3 µM | 7.23 µM | 14.4 µM | 5.63 µM | 12.4 µM | 7.21 µM | 13.8 µM | 8.88 µM | 15.9 µM | 2.27 µM | 7.62 µM | 5.1 µM | 12 µM
8 | CC(C)[C@H]1COC(=O)N1[C@@H]1C(=O)N([C@@H](CCC(=O)N2CCN(C3CCCC3)CC2)C(=O)N[C@@H]2CCCc3ccccc32)[C@@H]1/C=C/c1cccc(Br)c1 | 2.91 µM | 8.4 µM | 1.5 µM | 4.21 µM | 0.376 µM | 1.55 µM | 3.49 µM | 15.6 µM | 1.75 µM | 3.51 µM | 2.15 µM | 5.05 µM | 1.51 µM | 2.84 µM | 2.82 µM | 8.21 µM | 1.63 µM | 3.44 µM | 1.49 µM | 3.04 µM
9 | COc1cc2c3c(n(C)c(=O)c2cc1OC)-c1cc2c(cc1/C3=C\CCN)OCO2 | < 0.0104 µM | – | 1.32 µM | 26.5 µM | < 0.01 µM | 0.194 µM | 0.517 µM | 2.42 µM | 0.851 µM | > 100 µM | < 0.0239 µM | 8.84 µM | – | – | 3.88 µM | > 62.8 µM | 1.03 µM | 16.9 µM | 0.337 µM | 8.9 µM
10 | CSc1nc(NC2OCC(OC(C)=O)C(OC(C)=O)C2OC(C)=O)c(N=CC=Nc2c(NC3OCC(OC(C)=O)C(OC(C)=O)C3OC(C)=O)nc(SC)[nH]c2=O)c(=O)[nH]1 (configuration not stated) | – | > 100 µM | – | > 100 µM | – | > 100 µM | – | > 88.8 µM | – | > 83.8 µM | – | > 100 µM | – | > 100 µM | – | 80.1 µM | – | > 100 µM | – | > 100 µM
11 | CCCCCCCCC/C=C1\CCC(CN2CCOCC2)C1=O (configuration not stated) | – | 6.56 µM | – | 7.4 µM | – | 2.02 µM | – | 15.3 µM | – | 6.64 µM | – | 20 µM | – | 18.8 µM | – | 31.2 µM | – | 10.7 µM | – | 14.9 µM
12 | COc1cccc(-c2nc(-c3ccc(NC(=O)C(C)C)cc3)[nH]c2-c2ccnc(Br)c2)c1 | 2.99 µM | > 100 µM | 3.58 µM | 48.4 µM | 1.61 µM | 3.38 µM | 2.53 µM | 21.4 µM | 2.8 µM | > 100 µM | 0.273 µM | 0.759 µM | 1.8 µM | 3.32 µM | 3.66 µM | > 100 µM | 4.02 µM | > 100 µM | 3.2 µM | > 100 µM
13 | O=C(/C=C/c1ccc(Cl)cc1)c1ccc(Nc2ccnc3cc(Cl)ccc23)cc1 | 7.3 µM | > 100 µM | > 40.6 µM | > 100 µM | > 46.6 µM | > 100 µM | > 100 µM | > 100 µM | > 100 µM | > 100 µM | – | > 48.8 µM | – | > 53.8 µM | > 100 µM | > 100 µM | > 100 µM | > 100 µM | > 74.7 µM | > 100 µM
14 | CCCCCCCC(=O)SCC/C=C/[C@@H]1CC(=O)NCc2cc(ccn2)C2=N[C@@](C)(CS2)C(=O)N[C@@H](C(C)C)C(=O)O1 | 0.0231 µM | > 33.3 µM | 0.0268 µM | 0.214 µM | 0.0172 µM | 0.0666 µM | 0.0818 µM | 1.62 µM | 0.00721 µM | 0.204 µM | 0.0166 µM | 0.147 µM | 0.0117 µM | 0.051 µM | 0.00841 µM | 0.0716 µM | – | – | 0.0264 µM | 0.426 µM
